Measured values from patent publication US20140221490A1, “METHODS OF TREATING PAIN” (Hospira, Inc., priority 2011, published 2014).
Values joined by “and” are separate entries in the source; they are usually repeats but may differ in a detail not shown here. Equal entries are not always repeated. “Also recorded” adds a separate entry of the source.

Key:
[1] = cited from earlier work
[2] = tested on: acute moderate to severe pain after orthopedic surgery; assay: Multiple-dose randomized double-blind active- and placebo-controlled trial after orthopedic surgery: efficacy (SPID, pain relief, rescue morphine, patient global evaluation); type: in vivo, human
Experimental: Patients were randomly assigned to diclofenac, ketorolac, or placebo (2:1:1 ratio).
Randomization was stratified by risk group at baseline. The groups were high-risk, non-high-risk, or higher-weight, which was greater than 210 lbs., or 95 kg. Randomization was also stratified by anticipated stay between a long stay, which was longer than 24 hours, versus a shorter stay. The high-risk patients weighed less than 110 lbs.
The diclofenac formulation was Dyloject™. […] Adverse events (adverse effects) were recorded between surgery and randomization, not just after baseline, in order to distinguish treatment-emergent adverse events.
Patients were encouraged to wait at least 30 minutes after study drug initiation to request morphine.
Patients assessed their pain at baseline and at specified time points through the next 24 hours. Those who remained at the site longer assessed their pain every three hours until discharged. Patients returned for follow-up 5-9 days after baseline, and they received a follow-up telephone call 30-37 days after baseline.
Efficacy analyses were conducted using Statistical Analysis Software®, and unless otherwise noted refer to the intent-to-treat population. The analysis of area under the pain intensity difference curve, pain intensity difference, area under the pain relief curve, patient global evaluation, and amount of rescue medication were based on analysis of covariance (ANCOVA) models, with treatment and center as factors and baseline pain as a covariate. Confidence intervals were based on the pooled standard deviation obtained from an ANCOVA model. Treatment differences were tested with linear contrasts.
All testing of statistical significance was 2-sided unless the test performed was inherently 1-sided. […] The area under the pain relief curve was analyzed similarly.
The proportion of patients attaining at least 30% reduction in pain intensity and the frequency of rescue medication use were analyzed with Cochran-Mantel-Haenszel tests, with center as a stratification variable.
For area under the curve calculations, evaluations after the administration of rescue medication or after withdrawal due to adverse events (adverse effects) or lack of efficacy were imputed in accordance with prespecified rules. For post hoc analyses of pain intensity, an even more conservative and simplified set of imputation rules was applied.
This was a multicenter, multiple-dose, multiple-day, randomized, double-blind, active- and placebo-controlled, parallel-group study.
Assignments were made according to a computer-generated random-number code. Randomization was also stratified by risk cohort (high-risk, non-high-risk, or high-weight [≧95 kg]) at baseline (see FIG. 10), and by anticipated long stay (>24 hours) versus shorter stay, resulting in six strata within the randomization schedule.
Patients in all treatment groups received a bolus IV injection every 6 hours until discharge. […] All study drugs were blinded to the investigator and the patient; dose levels of the individual study treatments were not blinded.
Patients were encouraged to wait at least 30 minutes after study drug initiation to request morphine, to allow primary study drug to begin to exert analgesic effects but were never denied.
The primary efficacy measure was the sum of pain intensity differences (SPID) over five intervals: 0-24, 0-48, 0-72, 0-96, and 0-120 hours which was calculated by summing the difference in pain intensity (by a 0-100 visual analog scale) from baseline at designated timepoints.

[3] = tested on: patients after abdominal or pelvic surgery; assay: Abdominal or pelvic surgery trial: safety (adverse events, thrombophlebitis scale); type: in vivo, human
Experimental: Patients returned for a safety follow-up 5-9 days after baseline, and received a follow-up telephone call 30 days post-baseline. Safety assessments included physical examinations, laboratory testing, vital signs, 12-lead ECG, and evaluation of thrombophlebitis at the site of study drug injection using a 6-point scale (Table 5 and FIG. 6). AEs were recorded throughout the study.
The proportion of patients reporting ≧30% reduction from baseline in pain intensity was analyzed with the Cochran-Mantel-Haenszel test with center as a stratification variable. Time to meaningful (≧30%) reduction in pain intensity and time to administration of rescue medication were analyzed with Kaplan-Meier survival analysis techniques. Descriptive statistics were used for AEs, laboratory test results, vital signs, thrombophlebitis, and ECG results. Logistic regression was used to estimate the relative risk of cardiovascular events.

## O=C(c1ccccc1)c1ccc2n1CCC2C(=O)O (stereo not shown) [Ketorolac, ketorolac tromethamine]
[1]
  Vd, volume of distribution: 0.21 L/kg
[1]; plasma
  Prot. bind., drug fraction bound to protein (fP): 99%
[1]; read-out: Cmax, maximum drug concentration in plasma, based on the drug's pharmacokinetics and administration of a normal drug dose
  Cmax: 1800 nM
[2]; 0-24, 0-48, 0-72, 0-96, 0-120 hours, P<0.0001
  total pain relief vs placebo: significantly better
[2]; all time intervals 0-24 to 0-120 hours, P<0.0001
  mean sum of pain intensity differences (SPID) vs placebo: significantly better; also recorded: significantly greater
[2]; at last assessment
  patients rating their drug as “very good” or “excellent” (patient global evaluation): 57.6%
[2]; diclofenac 50 mg, ketorolac 30 mg, all time intervals, P<0.05
  SPID scores vs placebo, higher-weight group: better with both diclofenac 50 mg and ketorolac 30 mg compared with placebo
[2]; dose by risk cohort, IV every 6 hours
  patients achieving clinically meaningful pain reduction (≧30% reduction in intensity): 75%
[2]; elderly patients, low dose (diclofenac 18.75 mg, ketorolac 15 mg)
  amount of morphine used: 14.9 mg
[2]; human, in vivo
  median time from administration of study drug to administration of rescue medication: 137.0 min and 137 min
  time at which pain intensity difference first significantly differed from placebo (onset of analgesia): 30 min
[2]; over the first five days
  total rescue morphine requirement: 18.1 mg
[3]; 30 mg
  incidence of bleeding-related AEs: 6.1%
  incidence of cardiovascular AEs: 6.1%
  incidence of treatment-related AEs: 23.2%
[3]; 30 mg (n = 82)
  Abdominal Hematoma: 1 (1.2%) n (%)
  Bleeding-related AE: Anemia: 2 (2.4%) n (%)
  Blood Creatine phosphokinase (CPK) increased: 12 (14.6%) n (%)
  Constipation: 8 (9.8%) n (%)
  Diarrhea: 6 (7.3%) n (%)
  Flatulence: 22 (26.8%) n (%)
  Headache: 14 (17.1%) n (%)
  Hematoma: 0 (0.0%) n (%)
  Incision site complication: 0 (0.0%) n (%)
  Injection site pain, irritation: 17 (20.7%) n (%)
  Insomnia: 7 (8.5%) n (%)
  Nausea: 22 (26.8%) n (%)
  Number of patients experiencing ≧1 AE: 72 (87.8%) n (%)
  Pruritus: 3 (3.7%) n (%)
  Pyrexia: 9 (11.0%) n (%)
  Rectal Hemorrhage: 1 (1.2%) n (%)
  Tachycardia: 4 (4.9%) n (%)
  Thrombophlebitis: 6 (7.3%) n (%)
  Total patients with a Bleeding-Related AE: 5 (6.1%) n (%)
  Vaginal Hemorrhage: 0 (0.0%) n (%)
  Vomiting: 7 (8.5%) n (%)
  Wound complication: 1 (1.2%) n (%)
  Wound dehiscence: 1 (1.2%) n (%)
[3]; 30 mg, 49 on anticoagulants
  Total Patients on Concomitant Anticoagulants with a Bleeding-Related AE: 3 (6.1%) n (%)
[3]; ketorolac group (3/49), post hoc analysis
  subjects reporting ≧1 bleeding-related AE among subjects receiving anticoagulants: 6.1%
